Laboratory results taken from PubChem BioAssay (NCI).
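Interpolation was linear, between the two tested concentrations surrounding the appropriate level; five concentrations were tested over 48 hours in 96-well plates. GI50 = concentration required for 50% inhibition of growth. Definition used: TGI = concentration required for complete inhibition of growth.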

Legend:
Assay in all cases: NCI-60 cell line screen, 48 h
HL-60(TB) leukemia = test system: HL-60(TB) leukemia
SN12C renal = test system: SN12C renal
SK-OV-3 ovarian = test system: SK-OV-3 ovarian
OVCAR-8 ovarian = test system: OVCAR-8 ovarian
CAKI-1 renal = test system: CAKI-1 renal
KM12 colon = test system: KM12 colon
PC-3 prostate = test system: PC-3 prostate
HCT-15 colon = test system: HCT-15 colon
LXFL 529 NSCLC = test system: LXFL 529 NSCLC
ACHN renal = test system: ACHN renal
CCRF-CEM leukemia = test system: CCRF-CEM leukemia
HCT-116 colon = test system: HCT-116 colon
NCI-H522 lung = test system: NCI-H522 lung
MCF7 breast = test system: MCF7 breast
NCI/ADR-RES ovarian = test system: NCI/ADR-RES ovarian
SF-295 CNS = test system: SF-295 CNS
UO-31 renal = test system: UO-31 renal
T-47D breast = test system: T-47D breast
HOP-62 NSCLC = test system: HOP-62 NSCLC
NCI-H226 lung = test system: NCI-H226 lung
K-562 leukemia = test system: K-562 leukemia
MDA-MB-231 breast = test system: MDA-MB-231 breast
M14 melanoma = test system: M14 melanoma
DLD-1 colon = test system: DLD-1 colon
MOLT-4 leukemia = test system: MOLT-4 leukemia
SK-MEL-28 melanoma = test system: SK-MEL-28 melanoma
HS 578T breast = test system: HS 578T breast
MDA-MB-435 = test system: MDA-MB-435
BT-549 breast = test system: BT-549 breast
KM20L2 colon = test system: KM20L2 colon
XF 498 CNS = test system: XF 498 CNS
DU-145 prostate = test system: DU-145 prostate
MDA-N = test system: MDA-N
M19-MEL melanoma = test system: M19-MEL melanoma
SR leukemia = test system: SR leukemia
DMS 273 small cell lung = test system: DMS 273 small cell lung
HOP-92 NSCLC = test system: HOP-92 NSCLC
IGROV1 ovarian = test system: IGROV1 ovarian
SF-539 CNS = test system: SF-539 CNS
TK-10 renal = test system: TK-10 renal
OVCAR-4 ovarian = test system: OVCAR-4 ovarian
SK-MEL-5 melanoma = test system: SK-MEL-5 melanoma
DMS 114 small cell lung = test system: DMS 114 small cell lung
SNB-78 CNS = test system: SNB-78 CNS
SNB-75 CNS = test system: SNB-75 CNS
MALME-3M melanoma = test system: MALME-3M melanoma
786-0 renal = test system: 786-0 renal
EKVX NSCLC = test system: EKVX NSCLC
RPMI-8226 leukemia = test system: RPMI-8226 leukemia
U251 CNS = test system: U251 CNS
HT29 colon = test system: HT29 colon
A549 NSCLC = test system: A549 NSCLC
NCI-H23 lung = test system: NCI-H23 lung
COLO 205 colon = test system: COLO 205 colon
UACC-62 melanoma = test system: UACC-62 melanoma
UACC-257 melanoma = test system: UACC-257 melanoma
SNB-19 CNS = test system: SNB-19 CNS
SF-268 CNS = test system: SF-268 CNS
A498 renal = test system: A498 renal
HCC-2998 colon = test system: HCC-2998 colon
LOX IMVI melanoma = test system: LOX IMVI melanoma
SW-620 colon = test system: SW-620 colon
OVCAR-5 ovarian = test system: OVCAR-5 ovarian
RXF 393 renal = test system: RXF 393 renal
SK-MEL-2 melanoma = test system: SK-MEL-2 melanoma

SMILES: COc1cc2c(cc1O)CCN[C@@]21CS[C@H]2c3c(OC(C)=O)c(C)c4c(c3C(COC1=O)N1C2C2c3c(cc(C)c(OC)c3O)CC([C@@H]1O)N2C)OCO4 (some centres not stated)
- GI50 (HL-60(TB) leukemia): < 0.001 nM
- TGI (HL-60(TB) leukemia): < 0.001 nM
- TGI (SN12C renal): 0.00441 nM
- GI50 (SK-OV-3 ovarian): 2.46 nM
- GI50 (OVCAR-8 ovarian): 1.49 nM
- GI50 (CAKI-1 renal): 2.69 nM
- TGI (CAKI-1 renal): 62.2 nM
- GI50 (KM12 colon): 3.37 nM
- TGI (KM12 colon): 16.1 nM
- GI50 (PC-3 prostate): 4.29 nM
- GI50 (HCT-15 colon): 2.82 nM
- TGI (LXFL 529 NSCLC): 0.0431 nM
- TGI (ACHN renal): 1.2 nM
- TGI (CCRF-CEM leukemia): < 0.001 nM
- GI50 (HCT-116 colon): 3.05 nM
- TGI (HCT-116 colon): > 525 nM
- GI50 (NCI-H522 lung): 0.953 nM
- TGI (NCI-H522 lung): 2.73 nM
- GI50 (MCF7 breast): 0.277 nM
- GI50 (NCI/ADR-RES ovarian): 11.2 nM
- GI50 (SF-295 CNS): 0.788 nM
- TGI (SF-295 CNS): 27.7 nM
- GI50 (UO-31 renal): < 0.001 nM
- TGI (UO-31 renal): < 0.001 nM
- TGI (T-47D breast): > 1000 nM
- TGI (HOP-62 NSCLC): < 0.001 nM
- GI50 (NCI-H226 lung): < 0.001 nM
- TGI (NCI-H226 lung): < 0.001 nM
- GI50 (K-562 leukemia): < 0.001 nM
- TGI (K-562 leukemia): 0.0154 nM
- GI50 (MDA-MB-231 breast): 3.25 nM
- TGI (MDA-MB-231 breast): 35.7 nM
- TGI (M14 melanoma): 4.73 nM
- TGI (DLD-1 colon): 1.3 nM
- GI50 (MOLT-4 leukemia): < 0.001 nM
- GI50 (SK-MEL-28 melanoma): 2.42 nM
- TGI (SK-MEL-28 melanoma): 6.82 nM
- GI50 (HS 578T breast): 2.79 nM
- TGI (HS 578T breast): 13.7 nM
- GI50 (MDA-MB-435): 2.19 nM
- TGI (MDA-MB-435): 6.04 nM
- TGI (BT-549 breast): 9.87 nM
- TGI (KM20L2 colon): 0.0601 nM
- TGI (XF 498 CNS): < 0.001 nM
- GI50 (DU-145 prostate): 4.62 nM
- GI50 (MDA-N): 2.47 nM
- TGI (MDA-N): 10.8 nM
- TGI (M19-MEL melanoma): < 0.001 nM
- TGI (SR leukemia): 1.31 nM
- TGI (DMS 273 small cell lung): < 0.001 nM
- GI50 (HOP-92 NSCLC): 3.47 nM
- TGI (HOP-92 NSCLC): 64 nM
- GI50 (IGROV1 ovarian): 0.783 nM

SMILES: C/C(=N\O)C(CN(C)C)C(c1ccccc1)c1c(O)c2ccccc2oc1=O (configuration not stated)
- TGI (SF-539 CNS): > 100000 nM
- TGI (TK-10 renal): > 100000 nM
- TGI (HL-60(TB) leukemia): > 100000 nM
- TGI (OVCAR-4 ovarian): > 100000 nM
- TGI (SK-MEL-5 melanoma): > 100000 nM
- TGI (SN12C renal): > 100000 nM
- TGI (SK-OV-3 ovarian): > 100000 nM
- TGI (OVCAR-8 ovarian): > 100000 nM
- TGI (DMS 114 small cell lung): > 100000 nM
- TGI (CAKI-1 renal): > 100000 nM
- TGI (KM12 colon): > 100000 nM
- TGI (HCT-15 colon): > 100000 nM
- TGI (SNB-78 CNS): > 100000 nM
- TGI (SNB-75 CNS): > 100000 nM
- TGI (MALME-3M melanoma): > 100000 nM
- TGI (786-0 renal): > 100000 nM
- TGI (EKVX NSCLC): > 100000 nM
- TGI (LXFL 529 NSCLC): > 100000 nM
- TGI (RPMI-8226 leukemia): > 100000 nM
- TGI (U251 CNS): > 100000 nM
- TGI (CCRF-CEM leukemia): > 100000 nM
- TGI (HCT-116 colon): > 100000 nM
- TGI (NCI-H522 lung): > 100000 nM
- TGI (HT29 colon): > 100000 nM
- TGI (A549 NSCLC): > 100000 nM
- TGI (NCI-H23 lung): > 100000 nM
- TGI (SF-295 CNS): > 100000 nM
- TGI (UO-31 renal): > 100000 nM
- TGI (COLO 205 colon): > 100000 nM
- TGI (UACC-62 melanoma): > 100000 nM
- TGI (HOP-62 NSCLC): > 100000 nM
- TGI (UACC-257 melanoma): > 100000 nM
- TGI (NCI-H226 lung): > 100000 nM
- TGI (K-562 leukemia): > 100000 nM
- TGI (SNB-19 CNS): > 100000 nM
- TGI (SF-268 CNS): > 100000 nM
- TGI (M14 melanoma): > 100000 nM
- TGI (DLD-1 colon): > 100000 nM
- TGI (MOLT-4 leukemia): > 100000 nM
- TGI (SK-MEL-28 melanoma): > 100000 nM
- TGI (A498 renal): > 100000 nM
- TGI (KM20L2 colon): > 100000 nM
- TGI (XF 498 CNS): > 100000 nM
- TGI (HCC-2998 colon): > 100000 nM
- TGI (LOX IMVI melanoma): > 100000 nM
- TGI (M19-MEL melanoma): > 100000 nM
- TGI (SW-620 colon): > 100000 nM
- TGI (OVCAR-5 ovarian): > 100000 nM
- TGI (SR leukemia): > 100000 nM
- TGI (DMS 273 small cell lung): > 100000 nM
- TGI (HOP-92 NSCLC): > 100000 nM
- TGI (IGROV1 ovarian): > 100000 nM
- TGI (RXF 393 renal): > 100000 nM
- TGI (SK-MEL-2 melanoma): > 100000 nM
